Each block holds one compound with its values, some of them ahead of it.
How the values were obtained:
[1] = Stability against hydrolysis in H2O (HPLC, 197 nm); type: physicochemical; conditions: for HPLC peak 2.38 min, 2b (trans) / HPLC peak 2.88 min, 2b (cis) / HPLC peak 3.16 min / HPLC peak 3.84 min / HPLC peak 7.66 min / HPLC peak 24.42 min / HPLC peak 28.12 min / HPLC peak 29.92 min / HPLC peak 34.46 min, Acid / HPLC peak 49.58 min: 2b in water; for HPLC peak 6.54 min, 2d / HPLC peak 7.79 min / HPLC peak 8.86 min / HPLC peak 33.15 min / HPLC peak 40.33 min / HPLC peak 40.81 min / HPLC peak 43.77 min / HPLC peak 44.51 min / HPLC peak 46.56 min: 2d in water; for HPLC peak 2.32 min / HPLC peak 4.98 min / HPLC peak 17.21 min, 2e / HPLC peak 23.70 min, 2e isomer / HPLC peak 40.63 min / HPLC peak 42.14 min / HPLC peak 43.00 min / HPLC peak 44.95 min / HPLC peak 45.93 min / HPLC peak 46.64 min / HPLC peak 48.46 min / HPLC peak 49.36 min: 2e in water
Description: The contrast agents of the present series 100 mg are dissolved in distilled water 10 mL and is maintained as they are for 72 hours at 50° C. Using HPLC, O.D. (Optical Density) values are read at 197 nm and the stability of the agents is determined. The substances at each retention time are examined using LC Mass Spectroscopy for accurate identification of decomposed products.

[2] = Relaxation rate measurement (R1, R2) in PBS and in PBS solution of HSA; type: physicochemical; conditions: 293K; for R1 / R2: PBS pH 7.4, 64 MHz (1.5 T); for R1 in 0.67 mM HSA / R2 in 0.67 mM HSA: PBS solution of 0.67 mM HSA, 64 MHz
Description: T1 measurement is carried out using an inversion recovery method at 1.5 T (64 MHz) in a variable inverse time (TI). MR images are obtained for 35 different TI values in a range of 50 to 1750 ms. A T1 relaxation time is obtained from a nonlinear least-squares fit of a signal strength measured at each TI value. For a T2 CPMG (Carr-Purcell-Meiboon-Gill) pulse sequence measurement, the measurement is adapted to a multi spin-echo measurement. 34 images are obtained at 34 different echo time (TE) values in a range of 10 to 1900 ms. The T2 relaxation time is obtained from a nonlinear least-squares fit of mean pixel values for multi spin-echo measurement at each echo time. Next, a relaxation rate (R1 and R2) is calculated as an inverse of a relaxation time per mM. The determined relaxation time (T1 and T2) and relaxation rate (R1 and R2) are subjected to an image processing to get a relaxation time map and relaxation rate respectively.
For comparison between the complexes 2a-e, there is no noticeable difference in R1's. The measurement is carried out for two different media, that is, PBS (pH=7.4) and PBS solution of HAS in order to indicate which blood-pool effect is expressed by the complexes 2a-e.

ICR mice = assay: In vivo MR experiment, T1-weighted images after tail vein injection; conditions: for signal enhancement / signal strength at the liver / liver-specificity / class of contrast agent: 0.1 mmol Gd/kg i.v.; for signal enhancement / signal strength at the liver: 1.5 T, initial 1 hour; for liver-specificity / class of contrast agent: in vivo MR images of mice
Description: The in vivo experiment is executed with compliance to a regulation of Animal Research Committee of KNU. 29-31 g weight 6-weeks male ICR mice are used. […] The measurement is carried out before and after the injection of the complexes 2a-e through the tail vein. […] After the mice wake from the anesthesia after each measurement, the mice were placed in a cage capable of free access to feed and food. For this measurement, the animals are held at about 37° C. using a warm water blanket. MR images are taken using a 1.5 T MR unit (GE Healthcare, Milwaukee, Wis.) with a manual RF coil for a small animal. The coil may be of a receiver type having a 50 mm inner diameter. […] MR images are collected for 24 h after the injection. Anatomical positions having an improved contrast are set for a liver, a bile duct, and a kidney on (post contrast) MR images. For quantitative measurements, a signal intensity in a region of interest (ROI) is measured using Advantage Window software (GE medical, U.S.). The CNR is calculated using a following equation (1): […] SNR is a […].

SMILES: O=C([O-])CN1CCN(CC(=O)[O-])CCN(CC(=O)NCC2CCC(C(=O)O)CC2)CCN(CC(=O)[O-])CC1.[Gd+3] (stereo not drawn) [2b]
HPLC peak 2.38 min, 2b (trans) ([1]; 50° C./3 day): 93.4%
HPLC peak 2.88 min, 2b (cis) ([1]; 50° C./3 day): 2.87%
HPLC peak 3.16 min ([1]; 50° C./3 day): 0.33%
HPLC peak 3.84 min ([1]; 50° C./3 day): 0.38%
HPLC peak 7.66 min ([1]; 50° C./3 day): 0.06%
HPLC peak 24.42 min ([1]; 50° C./3 day): 0.19%
HPLC peak 28.12 min ([1]; 50° C./3 day): 0.64%
HPLC peak 29.92 min ([1]; 50° C./3 day): 0.10%
HPLC peak 34.46 min, Acid ([1]; 50° C./3 day): 0.03%
HPLC peak 49.58 min ([1]; 50° C./3 day): 0.21%
HPLC peak 2.38 min, 2b (trans) ([1]; initial): 92.80%
HPLC peak 2.88 min, 2b (cis) ([1]; initial): 3.35%
HPLC peak 3.16 min ([1]; initial): 0.30%
HPLC peak 3.84 min ([1]; initial): 0.35%
HPLC peak 7.66 min ([1]; initial): 0.12%
HPLC peak 24.42 min ([1]; initial): 0.06%
HPLC peak 28.12 min ([1]; initial): 0.56%
HPLC peak 29.92 min ([1]; initial): 0.09%
HPLC peak 34.46 min, Acid ([1]; initial): 0.34%
HPLC peak 49.58 min ([1]; initial): 0.19%
R1 [2]: 3.87 ± 0.11 mM⁻¹ s⁻¹
R2 [2]: 3.98 ± 0.26 mM⁻¹ s⁻¹
R1 in 0.67 mM HSA [2]: 3.98 ± 0.14 mM⁻¹ s⁻¹
R2 in 0.67 mM HSA [2]: 5.43 ± 0.28 mM⁻¹ s⁻¹
signal enhancement / signal strength at the liver (ICR mice; ICR mice): strong signal enhancement
liver-specificity / class of contrast agent (ICR mice): strong specificity enhancement

SMILES: NCCNC(=O)C1CCC(CNC(=O)CN2CCN(CC(=O)[O-])CCN(CC(=O)[O-])CCN(CC(=O)[O-])CC2)CC1.[Gd+3] (stereo not drawn) [2c]
HPLC peak 2.58% ([1]; 2c in water, 50° C./3 day): 0.27%
HPLC peak 7.61% ([1]; 2c in water, 50° C./3 day): 0.14%
HPLC peak 19.86% ([1]; 2c in water, 50° C./3 day): 2.30%
HPLC peak 2.31 min, 2b ([1]; 2c in water, 50° C./3 day): 0.11%
HPLC peak 9.10 min, 2c (trans) ([1]; 2c in water, 50° C./3 day): 93.11%
HPLC peak 10.60 min, 2c (cis) ([1]; 2c in water, 50° C./3 day): 1.19%
HPLC peak 40.68 min, 1c ([1]; 2c in water, 50° C./3 day): 0.002%
HPLC peak 45.53 min ([1]; 2c in water, 50° C./3 day): 0.18%
HPLC peak 49.81 min ([1]; 2c in water, 50° C./3 day): 0.11%
HPLC peak 2.58% ([1]; 2c in water, initial): 0.27%
HPLC peak 7.61% ([1]; 2c in water, initial): 0.14%
HPLC peak 2.31 min, 2b ([1]; 2c in water, initial): 0.06%
HPLC peak 9.10 min, 2c (trans) ([1]; 2c in water, initial): 91.05%
HPLC peak 10.60 min, 2c (cis) ([1]; 2c in water, initial): 1.35%
HPLC peak 40.68 min, 1c ([1]; 2c in water, initial): 1.65%
HPLC peak 45.53 min ([1]; 2c in water, initial): 0.16%
HPLC peak 49.81 min ([1]; 2c in water, initial): 0.09%
R1 [2]: 3.68 ± 0.13 mM⁻¹ s⁻¹
R2 [2]: 3.62 ± 0.26 mM⁻¹ s⁻¹
R1 in 0.67 mM HSA [2]: 3.74 ± 0.07 mM⁻¹ s⁻¹
R2 in 0.67 mM HSA [2]: 4.10 ± 0.07 mM⁻¹ s⁻¹
signal enhancement / signal strength at the liver (ICR mice; ICR mice): strong signal enhancement
liver-specificity / class of contrast agent (ICR mice): strong specificity enhancement

SMILES: NC1CCC(NC(=O)CN2CCN(CC(=O)[O-])CCN(CC(=O)[O-])CCN(CC(=O)[O-])CC2)CC1.[Gd+3] (stereo not drawn) [2d]
HPLC peak 6.54 min, 2d ([1]; 50° C./3 day): 90.10%
HPLC peak 7.79 min ([1]; 50° C./3 day): 0.36%
HPLC peak 8.86 min ([1]; 50° C./3 day): 0.30%
HPLC peak 33.15 min ([1]; 50° C./3 day): 1.12%
HPLC peak 40.33 min ([1]; 50° C./3 day): 0.007%
HPLC peak 40.81 min ([1]; 50° C./3 day): 0.14%
HPLC peak 43.77 min ([1]; 50° C./3 day): 0.25%
HPLC peak 44.51 min ([1]; 50° C./3 day): 0.22%
HPLC peak 46.56 min ([1]; 50° C./3 day): 0.18%
HPLC peak 6.54 min, 2d ([1]; initial): 89.67%
HPLC peak 7.79 min ([1]; initial): 0.30%
HPLC peak 8.86 min ([1]; initial): 0.30%
HPLC peak 33.15 min ([1]; initial): 1.20%
HPLC peak 40.33 min ([1]; initial): 0.16%
HPLC peak 40.81 min ([1]; initial): 0.14%
HPLC peak 43.77 min ([1]; initial): 0.27%
HPLC peak 44.51 min ([1]; initial): 0.23%
HPLC peak 46.56 min ([1]; initial): 0.19%
R1 [2]: 3.94 ± 0.13 mM⁻¹ s⁻¹
R2 [2]: 3.68 ± 0.29 mM⁻¹ s⁻¹
R1 in 0.67 mM HSA [2]: 3.91 ± 0.09 mM⁻¹ s⁻¹
R2 in 0.67 mM HSA [2]: 4.07 ± 0.09 mM⁻¹ s⁻¹
liver-specificity / class of contrast agent (ICR mice): ECF contrast agent
signal enhancement at the kidney and abdominal aorta (ICR mice; initially after 0.1 mmol Gd/kg i.v., ICR mice): strong signal enhancement

SMILES: O=C([O-])CN1CCN(CC(=O)[O-])CCN(CC(=O)NCC2CCCCC2)CCN(CC(=O)[O-])CC1.[Gd+3] [2e]
HPLC peak 2.32 min ([1]; 50° C./3 day): 0.04%
HPLC peak 4.98 min ([1]; 50° C./3 day): 0.07%
HPLC peak 17.21 min, 2e ([1]; 50° C./3 day): 94.66%
HPLC peak 23.70 min, 2e isomer ([1]; 50° C./3 day): 1.57%
HPLC peak 40.63 min ([1]; 50° C./3 day): 0.05%
HPLC peak 42.14 min ([1]; 50° C./3 day): 0.05%
HPLC peak 43.00 min ([1]; 50° C./3 day): 0.05%
HPLC peak 44.95 min ([1]; 50° C./3 day): 0.05%
HPLC peak 45.93 min ([1]; 50° C./3 day): 0.03%
HPLC peak 46.64 min ([1]; 50° C./3 day): 0.01%
HPLC peak 48.46 min ([1]; 50° C./3 day): 0.03%
HPLC peak 49.36 min ([1]; 50° C./3 day): 0.18%
HPLC peak 2.32 min ([1]; initial): 0.04%
HPLC peak 4.98 min ([1]; initial): 0.09%
HPLC peak 17.21 min, 2e ([1]; initial): 94.88%
HPLC peak 23.70 min, 2e isomer ([1]; initial): 1.36%
HPLC peak 40.63 min ([1]; initial): 0.03%
HPLC peak 42.14 min ([1]; initial): 0.01%
HPLC peak 43.00 min ([1]; initial): 0.05%
HPLC peak 44.95 min ([1]; initial): 0.05%
HPLC peak 45.93 min ([1]; initial): 0.04%
HPLC peak 46.64 min ([1]; initial): 0.02%
HPLC peak 48.46 min ([1]; initial): 0.03%
HPLC peak 49.36 min ([1]; initial): 0.18%
R1 [2]: 4.49 ± 0.18 mM⁻¹ s⁻¹
R2 [2]: 4.52 ± 0.28 mM⁻¹ s⁻¹
R1 in 0.67 mM HSA [2]: 5.21 ± 0.23 mM⁻¹ s⁻¹
R2 in 0.67 mM HSA [2]: 6.22 ± 0.28 mM⁻¹ s⁻¹

R1 [2]: 3.59 ± 0.17 mM⁻¹ s⁻¹
R2 [2]: 3.87 ± 0.20 mM⁻¹ s⁻¹
R1 in 0.67 mM HSA [2]: 4.05 ± 0.13 mM⁻¹ s⁻¹
R2 in 0.67 mM HSA [2]: 4.30 ± 0.25 mM⁻¹ s⁻¹
SMILES: CNC[C@H](O)[C@@H](O)[C@H](O)[C@H](O)CO.O=C([O-])CN1CCN(CC(=O)[O-])CCN(CC(=O)O)CCN(CC(=O)[O-])CC1.[Gd+3] [Dotarem, Gd-DOTA, reference compound]
